The test has as its target T1, BCL6 (Homo sapiens, UniProt P41182).
T1 construct: endogenous in cells; host or cells: T47D breast cancer epithelial cells
The test is described as follows: Immunofluorescence protocol for high content imaging of BCL6 (degradation) in T47D cells, 3 days compound treatment. The note with it: for Dmax: T47D, read-out: Mean Dmax (%)** category; for DC50: read-out: Mean DC50 (nM)* category. The class given is cell-based. In short, it runs like this: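 High content immunofluorescence imaging (10×, 4 fields/well) of BCL6 using rabbit primary antibody, Alexa-488 secondary, cell mask and Hoechst nuclear stain after PFA fixation. Before staining, T47D cells (7K/well) were exposed for 3 days at 37° C to 3-fold serial dilutions of compound, top final concentration 0.1 or 1 μM.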

Where only a bound is given, the exact number is not on record here.

This note sets out measurements from patent US11986532B2 (Arvinas Operations, Inc., priority 2021, dated 2024).

As usually defined, the Dmax is the greatest extent of degradation seen. For orientation: DC50 means the concentration giving 50% degradation.

Regarding `CNC(=O)COc1cc2cc(Nc3nc(N4CCC(OC5CCC6(CC5)CN(c5cc(F)cc7c5CN(C5CCC(=O)NC5=O)C7=O)C6)CC4)ncc3Cl)ccc2n(C(C)C)c1=O` (stereo not drawn) [Compound 299, 2-{[6-({5-chloro-2-[4-({2-[2-(2,6-dioxopiperidin-3-yl)-6-fluoro-1-oxo-2,3-dihydro-1H-isoindol-4-yl]-2-azaspiro[3.5]nonan-7-yl}oxy)piperidin-1-yl]pyrimidin-4-yl}amino)-2-oxo-1-(propan-2-yl)-1,2-dihydroquinolin-3-yl]oxy}-N-methylacetamide], the Dmax lay in the range of 50 to 70% and the DC50 was < 10 nM.

As for `CNC(=O)COc1cc2cc(Nc3nc(N4CCC(OC5CCC6(CC5)CN(c5c(OC)ccc7c5CN(C5CCC(=O)NC5=O)C7=O)C6)CC4)ncc3Cl)ccc2n(C(C)C)c1=O` (stereo not drawn) [Compound 300, 2-{[6-({5-chloro-2-[4-({2-[2-(2,6-dioxopiperidin-3-yl)-5-methoxy-1-oxo-2,3-dihydro-1H-isoindol-4-yl]-2-azaspiro[3.5]nonan-7-yl}oxy)piperidin-1-yl]pyrimidin-4-yl}amino)-2-oxo-1-(propan-2-yl)-1,2-dihydroquinolin-3-yl]oxy}-N-methylacetamide], the Dmax was 50 to 70% and the DC50 was < 10 nM.

Regarding `CNC(=O)COc1cc2cc(Nc3nc(N4CCC(OC5CCC6(CC5)CN(c5cc(OC)cc7c5CN(C5CCC(=O)NC5=O)C7=O)C6)CC4)ncc3Cl)ccc2n(C(C)C)c1=O` (stereo not drawn) [Compound 301, 2-{[6-({5-chloro-2-[4-({2-[2-(2,6-dioxopiperidin-3-yl)-6-methoxy-1-oxo-2,3-dihydro-1H-isoindol-4-yl]-2-azaspiro[3.5]nonan-7-yl}oxy)piperidin-1-yl]pyrimidin-4-yl}amino)-2-oxo-1-(propan-2-yl)-1,2-dihydroquinolin-3-yl]oxy}-N-methylacetamide], the Dmax lay in the range of 50 to 70% and the DC50 is < 10 nM.

Take `CNC(=O)COc1cc2cc(Nc3nc(N4CCC(CN5CCC6(CC5)CN(c5ccc7c(c5OC)CN(C5CCC(=O)NC5=O)C7=O)C6)CC4)ncc3Cl)ccc2n(C(C)C)c1=O` (stereo not drawn) [Compound 302, 2-{[6-({5-chloro-2-[4-({2-[2-(2,6-dioxopiperidin-3-yl)-4-methoxy-1-oxo-2,3-dihydro-1H-isoindol-5-yl]-2,7-diazaspiro[3.5]nonan-7-yl}methyl)piperidin-1-yl]pyrimidin-4-yl}amino)-2-oxo-1-(propan-2-yl)-1,2-dihydroquinolin-3-yl]oxy}-N-methylacetamide]: the Dmax was in the range of 50 to 70% and the DC50 is < 10 nM.

As for `CNC(=O)COc1cc2cc(Nc3nc(N4CCC(O[C@H]5C[C@H](N6CC=C(c7ccc8c(c7)C(=O)N(C7CCC(=O)NC7=O)C8=O)CC6)C5)CC4)ncc3Cl)ccc2n(C(C)C)c1=O` (stereo partly drawn) [Compound 303, 2-({6-[(5-chloro-2-{4-[(1r,3r)-3-{4-[2-(2,6-dioxopiperidin-3-yl)-1,3-dioxo-2,3-dihydro-1H-isoindol-5-yl]-1,2,3,6-tetrahydropyridin-1-yl}cyclobutoxy]piperidin-1-yl}pyrimidin-4-yl)amino]-2-oxo-1-(propan-2-yl)-1,2-dihydroquinolin-3-yl}oxy)-N-methylacetamide], the Dmax is 50 to 70% and the DC50 was 50 to 100 nM.

Turning to `CNC(=O)COc1cc2cc(Nc3nc(N4CCC(OC5CCC6(CC5)CN(c5ccc(OC)c7c5CN(C5CCC(=O)NC5=O)C7=O)C6)CC4)ncc3Cl)ccc2n(C(C)C)c1=O` (stereo not drawn) [Compound 304, 2-{[6-({5-chloro-2-[4-({2-[2-(2,6-dioxopiperidin-3-yl)-7-methoxy-1-oxo-2,3-dihydro-1H-isoindol-4-yl]-2-azaspiro[3.5]nonan-7-yl}oxy)piperidin-1-yl]pyrimidin-4-yl}amino)-2-oxo-1-(propan-2-yl)-1,2-dihydroquinolin-3-yl]oxy}-N-methylacetamide], the Dmax lay in the range of 50 to 70% and the DC50 is < 10 nM.
